Assay results from the NIST ThermoML archive (doi:10.1016/j.tca.2014.10.001).

Assay: mn = molality of the nth substance listed, in mol/kg
Settings: 100 kPa, Liquid; for electrical conductivity: Alternating current cell with electrodes; for speed of sound: Frequency=3 MHz, Sing-around technique in a fixed-path interferometer; for mass density: Vibrating tube method

CCCCn1cc[n+](C)c1C.F[B-](F)(F)F [1-butyl-2,3-dimethylimidazolium tetrafluoroborate] + O
Settings | electrical conductivity [S/m] | mass density [kg/m3] | speed of sound [m/s]
298.15 K, m1 = 0.0308 | – | 998.165 | 1500.7
298.15 K, m1 = 0.04107 | – | 998.537 | 1502.3
298.15 K, m1 = 0.05137 | – | 998.909 | 1504
298.15 K, m1 = 0.06162 | – | 999.277 | 1505.7
298.15 K, m1 = 0.08198 | – | 1000 | 1509
298.15 K, m1 = 0.1024 | – | 1000.72 | 1511.6
298.15 K, m1 = 0.1072 | 0.787 | – | –
298.15 K, m1 = 0.1123 | 0.816 | – | –
298.15 K, m1 = 0.1179 | 0.847 | – | –
298.15 K, m1 = 0.1231 | – | 1001.43 | 1512.3
298.15 K, m1 = 0.1242 | 0.881 | – | –
298.15 K, m1 = 0.1311 | 0.92 | – | –
298.15 K, m1 = 0.1388 | 0.962 | – | –
298.15 K, m1 = 0.1436 | – | 1002.11 | 1513
298.15 K, m1 = 0.1474 | 1.01 | – | –
298.15 K, m1 = 0.1573 | 1.06 | – | –
298.15 K, m1 = 0.164 | – | 1002.79 | 1513.5
298.15 K, m1 = 0.1685 | 1.12 | – | –
298.15 K, m1 = 0.1815 | 1.19 | – | –
298.15 K, m1 = 0.1846 | – | 1003.47 | 1514
298.15 K, m1 = 0.1966 | 1.27 | – | –
298.15 K, m1 = 0.205 | – | 1004.13 | 1514.6
298.15 K, m1 = 0.2145 | 1.35 | – | –
308.15 K, m1 = 0.0308 | – | 995.089 | 1523
308.15 K, m1 = 0.0309 | 0.278 | – | –
308.15 K, m1 = 0.032 | 0.287 | – | –
308.15 K, m1 = 0.0333 | 0.299 | – | –
308.15 K, m1 = 0.0347 | 0.305 | – | –
308.15 K, m1 = 0.0362 | 0.32 | – | –
308.15 K, m1 = 0.0379 | 0.331 | – | –
308.15 K, m1 = 0.0397 | 0.344 | – | –
308.15 K, m1 = 0.04107 | – | 995.443 | 1524.2
308.15 K, m1 = 0.0417 | 0.359 | – | –
308.15 K, m1 = 0.0439 | 0.378 | – | –
308.15 K, m1 = 0.0463 | 0.396 | – | –
308.15 K, m1 = 0.049 | 0.415 | – | –
308.15 K, m1 = 0.05137 | – | 995.796 | 1525.5
308.15 K, m1 = 0.0521 | 0.437 | – | –
308.15 K, m1 = 0.0556 | 0.462 | – | –
308.15 K, m1 = 0.0596 | 0.493 | – | –
308.15 K, m1 = 0.06162 | – | 996.146 | 1526.8
308.15 K, m1 = 0.0642 | 0.531 | – | –
308.15 K, m1 = 0.0695 | 0.568 | – | –
308.15 K, m1 = 0.0719 | 0.585 | – | –
308.15 K, m1 = 0.0745 | 0.603 | – | –
308.15 K, m1 = 0.0772 | 0.624 | – | –
308.15 K, m1 = 0.0802 | 0.649 | – | –
308.15 K, m1 = 0.08198 | – | 996.836 | 1529
308.15 K, m1 = 0.0834 | 0.673 | – | –
308.15 K, m1 = 0.0869 | 0.698 | – | –
308.15 K, m1 = 0.0906 | 0.727 | – | –
308.15 K, m1 = 0.0947 | 0.756 | – | –
308.15 K, m1 = 0.0992 | 0.788 | – | –
308.15 K, m1 = 0.1024 | – | 997.517 | 1531.1
308.15 K, m1 = 0.1042 | 0.819 | – | –
308.15 K, m1 = 0.1097 | 0.851 | – | –
308.15 K, m1 = 0.1158 | 0.883 | – | –
308.15 K, m1 = 0.1225 | 0.919 | – | –
308.15 K, m1 = 0.1231 | – | 998.186 | 1531.7
308.15 K, m1 = 0.1302 | 0.965 | – | –
308.15 K, m1 = 0.1388 | 1.01 | – | –
308.15 K, m1 = 0.1436 | – | 998.836 | 1532.1
308.15 K, m1 = 0.1487 | 1.07 | – | –
308.15 K, m1 = 0.1602 | 1.13 | – | –
308.15 K, m1 = 0.164 | – | 999.479 | 1532.5
308.15 K, m1 = 0.1735 | 1.2 | – | –
308.15 K, m1 = 0.1846 | – | 1000.13 | 1533
308.15 K, m1 = 0.1892 | 1.29 | – | –
308.15 K, m1 = 0.205 | – | 1000.75 | 1533.6
308.15 K, m1 = 0.208 | 1.4 | – | –
